Measured values published in US11179394B2, “Method for treating cancer using a combination of Chk1 and ATR inhibitors” (priority 2014, dated 2021).

Assays:
BJ-hTERT parental cells = assay: Cell viability by resazurin staining; assay type: cell-based; details: 72 hours, AZD7762 30 nM
Protocol: Referring to FIG. 2D, an isogenic cell pair was used to assess the impact of loss of p53 and RB on cell sensitivity to the combination of VE-821 and AZD7762 (BJ-hTERT parental cells vs BJ-SV40T cells expressing the Large Tumor Antigen which inactivates p53 and RB function). In addition, the impact of expression of the H-RAS oncogene was assessed in the BJ-SV40T cells transformed with activated H-RAS(G12V) (BJ RAS). Cells were treated with either VE-821 alone (at concentrations up to 5 μM), AZD7762 alone (30 nM) or the combination of VE-821 and AZD7762 for 72 hours.

[1] = tested on: H460 lung cancer cell line; details: AZD7762 25 mg/kg intraperitoneal, VE-822 60 mg/kg oral gavage; for survival: combination vs monotherapy P<0.01; for tumor size / tumor growth: combination vs monotherapy P<0.05
Protocol: (§2) In the case of the MX-1 model, 2 million cells in 50% matrigel were injected in nude mice and for the H460 model 5 million cells in PBS were injected in nude mice. After 8-9 days of implantation animals were divided into 4 groups of 5 animals based on tumor size; with mean tumor volume of 130 mm^3. […] Body weight and tumor volume were measured twice a week. Tumor volume was measured with caliper and shown as mean±S.E.M (length×width×width×0.52).

[2] = tested on: BJ-SV40T cells (p53 and RB inactivated); assay: Cell viability by resazurin staining; details: 72 hours, VE-821 up to 5 μM, AZD7762 30 nM
Protocol: (§3) In addition, the impact of expression of the H-RAS oncogene was assessed in the BJ-SV40T cells transformed with activated H-RAS(G12V) (BJ RAS).

[3] = tested on: MX-1 breast cancer cell line; details: AZD7762 25 mg/kg intraperitoneal, VE-822 60 mg/kg oral gavage; for survival: combination P<0.05
Protocol: as §2

[4] = tested on: cMYC transformed cells, HA1EB-GFP-cMYC; assay: Cell viability by resazurin staining; details: 72 hours, VE-821 up to 5 μM, AZD7762 30 nM
HA1EB-GFP parental cells = assay: Cell viability by resazurin staining; assay type: cell-based; details: 72 hours, VE-821 up to 5 μM, AZD7762 30 nM
[5] = tested on: BJ RAS cells (BJ-SV40T transformed with activated H-RAS(G12V)); assay: Cell viability by resazurin staining; details: 72 hours, VE-821 up to 5 μM, AZD7762 30 nM
Protocol: as §3

Parental DLD-1 cells = assay: cells; assay type: cell-based; details: Homo sapiens, DLD-1, read-out: cell viability
Protocol: (§1) 500 cells of U2OS, MCF-7, DLD-1, DLD-1 Chk-1^S317A/-, DLD-1 Chk-1^+/−, DLD-1 ATR^S/S and 1000 cells of VH-10 were plated on 10 cm plate. After 5 hr. of incubation (5% CO2 at 37° C.) vehicle (0.05% DMSO max) various concentration of ATR inhibitor VE-821 were directly added to the media containing plate and incubated for 72 hr. At the end of 72 hr. of incubation, vehicle and drug containing media was replaced with fresh media and further incubated for another 5-8 days before plates were fixed and stained with 4% methylene blue in MeOH and colonies were counted manually. Each data point represents a triplicate data set±SEM.

[6] = tested on: DLD-1 cells expressing the inactive mutant form of Chk1 (S317A/-); assay: Clonogenic survival assay; assay type: cell-based; details: Homo sapiens; DLD-1 Chk1 S317A/-; 1 μM VE-821; read-out: viable cells remaining
Protocol: as §1

U2OS cancer cells = assay: Clonogenic survival assay; assay type: cell-based; details: 1 μM VE-821, 72 hr, AZD7762 20 nM where combined
Protocol: as §1

MCF-7 cancer cells = assay: Clonogenic survival assay; assay type: cell-based; details: 1 μM VE-821, 72 hr, AZD7762 20 nM where combined
Protocol: as §1

ATR = ATR (Homo sapiens, UniProt Q13535); details: 1 μM VE-821; cited from earlier work
U2OS cells = assay: Cleaved caspase-3 (apoptosis) with hydroxyurea; assay type: cell-based; details: 24 hr, hydroxyurea (2 mM) alone
Protocol: Referring to FIG. 5, the impact of Chk1 inhibition by AZD7762 on cell apoptosis from treatment with the ATR inhibitor VE-821 and a representative DNA damaging agent, hydroxyl urea (2 mM), was assessed by measuring levels of cleaved caspase-3, a widely used marker of apoptosis. U2OS cells were treated for 24 hr. with the DNA damaging agent hydroxyurea and varied doses of AZD7762 and/or VE-821. Cells were subsequently stained with anti-cleavage caspase 3 and β actin antibodies and confocal microscopy used to take and quantify images. Data are presented as % cells positive for cleaved capsae-3.

ATR, sequence (Q13535 whole entry): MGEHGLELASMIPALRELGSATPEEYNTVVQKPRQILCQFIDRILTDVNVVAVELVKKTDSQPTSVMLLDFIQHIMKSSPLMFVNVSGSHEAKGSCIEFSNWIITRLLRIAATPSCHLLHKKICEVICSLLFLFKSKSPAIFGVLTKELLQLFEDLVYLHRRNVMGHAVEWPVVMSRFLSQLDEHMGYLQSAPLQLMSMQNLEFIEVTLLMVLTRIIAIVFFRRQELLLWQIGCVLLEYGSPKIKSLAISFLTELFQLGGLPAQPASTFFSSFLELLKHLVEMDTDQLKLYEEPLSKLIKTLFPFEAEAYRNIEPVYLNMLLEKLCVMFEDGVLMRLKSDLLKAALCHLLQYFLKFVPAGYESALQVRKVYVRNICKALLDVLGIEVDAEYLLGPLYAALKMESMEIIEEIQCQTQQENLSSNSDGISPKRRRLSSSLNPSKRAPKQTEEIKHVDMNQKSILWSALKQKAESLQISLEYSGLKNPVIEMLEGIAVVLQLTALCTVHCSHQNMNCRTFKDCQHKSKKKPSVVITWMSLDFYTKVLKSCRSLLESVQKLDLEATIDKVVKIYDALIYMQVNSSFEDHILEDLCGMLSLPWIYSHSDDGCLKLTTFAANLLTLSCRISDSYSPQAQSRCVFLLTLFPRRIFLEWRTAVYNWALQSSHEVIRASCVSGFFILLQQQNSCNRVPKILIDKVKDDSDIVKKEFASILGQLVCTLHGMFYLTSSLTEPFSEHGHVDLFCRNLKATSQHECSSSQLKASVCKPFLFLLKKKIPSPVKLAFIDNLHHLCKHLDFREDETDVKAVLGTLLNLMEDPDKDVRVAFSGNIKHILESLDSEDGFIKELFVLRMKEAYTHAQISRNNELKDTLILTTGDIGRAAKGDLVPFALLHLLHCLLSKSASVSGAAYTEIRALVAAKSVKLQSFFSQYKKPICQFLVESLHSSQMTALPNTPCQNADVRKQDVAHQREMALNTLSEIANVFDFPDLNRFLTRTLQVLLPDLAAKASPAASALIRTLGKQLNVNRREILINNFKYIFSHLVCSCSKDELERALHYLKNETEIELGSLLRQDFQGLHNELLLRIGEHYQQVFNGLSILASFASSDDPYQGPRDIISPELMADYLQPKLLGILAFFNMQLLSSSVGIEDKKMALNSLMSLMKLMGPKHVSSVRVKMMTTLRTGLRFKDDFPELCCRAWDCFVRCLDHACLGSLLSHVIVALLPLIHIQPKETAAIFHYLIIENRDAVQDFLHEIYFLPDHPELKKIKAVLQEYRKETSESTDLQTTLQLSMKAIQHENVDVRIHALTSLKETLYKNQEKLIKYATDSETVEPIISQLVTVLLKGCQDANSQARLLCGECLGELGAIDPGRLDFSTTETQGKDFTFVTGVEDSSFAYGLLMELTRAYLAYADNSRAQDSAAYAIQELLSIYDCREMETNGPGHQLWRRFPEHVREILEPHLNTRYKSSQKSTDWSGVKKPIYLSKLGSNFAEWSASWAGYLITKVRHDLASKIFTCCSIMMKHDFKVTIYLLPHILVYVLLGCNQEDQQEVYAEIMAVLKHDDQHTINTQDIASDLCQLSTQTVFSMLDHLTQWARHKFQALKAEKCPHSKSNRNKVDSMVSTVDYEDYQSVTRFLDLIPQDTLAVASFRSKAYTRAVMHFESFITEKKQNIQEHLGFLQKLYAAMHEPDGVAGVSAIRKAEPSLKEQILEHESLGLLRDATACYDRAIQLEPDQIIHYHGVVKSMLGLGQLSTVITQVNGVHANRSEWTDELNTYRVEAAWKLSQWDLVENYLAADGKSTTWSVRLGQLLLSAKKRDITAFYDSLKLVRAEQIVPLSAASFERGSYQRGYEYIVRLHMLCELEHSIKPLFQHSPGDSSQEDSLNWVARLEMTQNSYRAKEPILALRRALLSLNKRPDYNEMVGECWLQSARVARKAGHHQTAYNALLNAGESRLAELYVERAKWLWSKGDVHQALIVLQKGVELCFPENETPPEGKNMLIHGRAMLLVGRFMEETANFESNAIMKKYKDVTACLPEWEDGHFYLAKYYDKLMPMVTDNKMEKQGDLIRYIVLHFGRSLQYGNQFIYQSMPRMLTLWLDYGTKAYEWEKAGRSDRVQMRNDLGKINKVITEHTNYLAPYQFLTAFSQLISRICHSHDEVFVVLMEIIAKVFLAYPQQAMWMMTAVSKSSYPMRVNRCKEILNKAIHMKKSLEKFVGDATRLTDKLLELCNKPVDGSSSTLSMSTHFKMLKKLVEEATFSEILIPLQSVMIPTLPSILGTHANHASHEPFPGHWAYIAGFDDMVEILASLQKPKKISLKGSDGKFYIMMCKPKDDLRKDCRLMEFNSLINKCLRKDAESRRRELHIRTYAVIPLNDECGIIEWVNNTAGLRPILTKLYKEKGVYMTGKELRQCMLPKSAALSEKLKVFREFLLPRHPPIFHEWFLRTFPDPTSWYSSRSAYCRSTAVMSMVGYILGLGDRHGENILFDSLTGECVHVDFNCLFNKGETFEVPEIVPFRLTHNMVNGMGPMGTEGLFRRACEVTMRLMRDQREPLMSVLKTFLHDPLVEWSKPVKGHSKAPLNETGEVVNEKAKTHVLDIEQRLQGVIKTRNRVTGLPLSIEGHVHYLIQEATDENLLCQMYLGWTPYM
ATR, sequence (Q8WXE1 whole entry partner): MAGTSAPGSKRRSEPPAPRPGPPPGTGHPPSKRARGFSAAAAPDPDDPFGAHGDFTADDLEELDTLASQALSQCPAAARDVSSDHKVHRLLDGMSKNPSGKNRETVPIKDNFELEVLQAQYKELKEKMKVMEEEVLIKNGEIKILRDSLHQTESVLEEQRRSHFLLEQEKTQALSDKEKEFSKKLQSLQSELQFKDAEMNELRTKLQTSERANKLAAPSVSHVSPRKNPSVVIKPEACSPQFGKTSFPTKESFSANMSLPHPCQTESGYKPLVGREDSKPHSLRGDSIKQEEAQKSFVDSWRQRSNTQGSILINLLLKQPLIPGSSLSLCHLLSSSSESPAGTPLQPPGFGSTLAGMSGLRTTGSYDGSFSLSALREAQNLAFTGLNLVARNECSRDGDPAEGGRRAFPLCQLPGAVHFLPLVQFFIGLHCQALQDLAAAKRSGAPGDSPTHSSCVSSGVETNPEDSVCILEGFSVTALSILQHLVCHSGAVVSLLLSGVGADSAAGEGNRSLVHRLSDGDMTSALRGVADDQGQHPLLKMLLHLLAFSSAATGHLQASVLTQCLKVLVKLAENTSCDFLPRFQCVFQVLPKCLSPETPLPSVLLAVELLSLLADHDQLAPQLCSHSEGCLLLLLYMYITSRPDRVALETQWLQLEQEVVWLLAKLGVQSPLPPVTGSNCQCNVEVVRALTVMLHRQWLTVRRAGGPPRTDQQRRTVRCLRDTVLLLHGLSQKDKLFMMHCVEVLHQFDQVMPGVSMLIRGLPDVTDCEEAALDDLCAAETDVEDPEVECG

Compound	effect on viability (BJ-hTERT parental cells)	survival [1]	tumor size / tumor growth [1]	viable cells remaining [2]	tumor size / tumor growth [3]	survival [3]	viable cells remaining [4]	effect on viability (HA1EB-GFP parental cells)	viable cells remaining [5]	viability at 1 µM (Parental DLD-1 cells)	viability at 1 µM [6]	clonogenic survival (U2OS cancer cells)	clonogenic survival (MCF-7 cancer cells)	ATR activity inhibited (ATR)	cells positive for cleaved caspase-3 (U2OS cells)
NC(=O)Nc1cc(-c2cccc(F)c2)sc1C(=O)N[C@H]1CCCNC1 [AZD7762, reference compound]	did not have a marked effect	minimal impact	minimal impact	did not have a marked effect	reduced tumor growth	no impact	did not impact the viability	Neither VE-821 nor AZD7762 had a marked effect	did not have a marked effect	–	–	–	–	–	–
CS(=O)(=O)c1ccc(-c2cnc(N)c(C(=O)Nc3ccccc3)n2)cc1 [VE-821]	–	–	–	–	–	–	~40%	Neither VE-821 nor AZD7762 had a marked effect	~60%	~100%	< 3%	10-20%	10-20%	about 50%	–
CNCc1ccc(-c2cc(-c3nc(-c4ccc(S(=O)(=O)C(C)C)cc4)cnc3N)on2)cc1 [VE-822]	–	minimal impact	minimal impact	–	minimal impact	minimal impact	–	–	–	–	–	–	–	–	–
NC(=O)NO [hydroxyurea]	–	–	–	–	–	–	–	–	–	–	–	–	–	–	< 0.5%
